Reference: patent US8685974B2 (Bayer CropScience AG, priority 2009, dated 2014)
“And” between values parts separate entries of the source, which are not always exact repeats. Identical values can stand only once. Like-named read-outs stand apart in the source and are kept apart here. Marks after values point to notes of the source that are not given here.

Key:
Cochliobolus miyabeanus = assay: Cochliobolus test (rice) / protective; format: in vivo; details: 500 ppm active compound, protective spray, evaluated 4 days after inoculation
Puccinia recondita = assay: In vivo test on Puccinia recondita (brown rust); details: dose of 500 ppm; wheat plants; grading 10 days after contamination
Procedure: In Vivo Test on Puccinia recondita (Brown Rust)
(§1) The active ingredients tested are prepared by homogenization in a mixture of acetone/tween/DMSO, then diluted with water to obtain the desired active material.
Wheat plants (Scipion variety) sown on 50/50 peat soil-pozzolana substrate in starter cups and grown at 12° C., are treated at the 1-leaf stage (10 cm tall) by spraying with the aqueous suspension described above.
(§2) Plants, used as controls, are treated with an aqueous solution not containing the active material.
After 24 hours, the plants are contaminated by spraying the leaves with an aqueous suspension of Puccinia recondita spores (100,000 spores per ml). The spores are collected from a 10-day-old contaminated wheat and are suspended in water containing 2.5 ml/l of tween 80 10%. The contaminated wheat plants are incubated for 24 hours at 20° C. and at 100% relative humidity, and then for 10 days at 20° C. and at 70% relative humidity.
Grading is carried out 10 days after the contamination, in comparison with the control plants.

[1] = test system: Mycosphaerella graminicola; assay: In vivo test on Mycosphaerella graminicola (wheat leaf spot); details: dose of 500 ppm; wheat plants; grading 21 to 28 days after contamination
Procedure: In Vivo Test on Mycosphaerella graminicola (Wheat Leaf Spot)
The active ingredients tested are prepared by homogenization in a mixture of acetone/tween/DMSO, then diluted with water to obtain the desired active material concentration.
Wheat plants (Scipion variety), sown on a 50/50 peat soil-pozzolana substrate in starter cups and grown at 12° C., are treated at the 1-leaf stage (10 cm tall) by spraying with the aqueous suspension described above. Plants, used as controls, are treated with an aqueous solution not containing the active material.
After 24 hours, the plants are contaminated by spraying them with an aqueous suspension of Mycosphaerella graminicola spores (500 000 spores per ml). The spores are collected from a 7-day-old culture. The contaminated wheat plants are incubated for 72 hours at 18° C. and at 100% relative humidity, and then for 21 to 28 days at 90% relative humidity.
Grading (% of efficacy) is carried out 21 to 28 days after the contamination, in comparison with the control plants.

[2] = for logP value of the minor isomer (in parenthesis in column Isomer ratio [d]): main value of the example measured by method [b]
Peronospora parasitica = assay: In vivo test on Peronospora parasitica (crucifer downy mildew); details: dose of 500 ppm; cabbage plants; grading 5 days after contamination
Procedure: In Vivo Test on Peronospora parasitica (Crucifer Downy Mildew)
The active ingredients tested are prepared by homogenization in a mixture of acetone/Tween/DMSO, then diluted with water to obtain the desired active material concentration.
Cabbage plants (Eminence variety) in starter cups, sown on a 50/50 peat soil-pozzolana substrate and grown at 18-20° C., are treated at the cotyledon stage by spraying with the aqueous suspension described above.
as §2
After 24 hours, the plants are contaminated by spraying them with an aqueous suspension of Peronospora parasitica spores (50 000 spores per ml). The spores are collected from infected plant.
The contaminated cabbage plants are incubated for 5 days at 20° C., under a humid atmosphere.
Grading is carried out 5 days after the contamination, in comparison with the control plants.

Rhizoctonia solani = assay: Rhizoctonia test (rice) / protective; format: in vivo; details: 500 ppm active compound, protective spray, evaluated 4 days after inoculation
Procedure: Rhizoctonia Test (Rice)/Protective
Solvent: 28.5 parts by weight of acetone
Emulsifier: 1.5 parts by weight of polyoxyethylene alkyl phenyl ether
To produce a suitable preparation of active compound, 1 part by weight of active compound is mixed with the stated amounts of solvent and emulsifier, and the concentrate is diluted with water to the desired concentration.
To test for protective activity, young plants are sprayed with the preparation of active compound at the stated rate of application. One day after spraying, the plants are inoculated with a hypha of the causal agent of rice sheath blight (Rhizoctonia solani). The plants are then placed in an incubator at approximately 25° C. and a relative atmospheric humidity of approximately 100%.
The test is evaluated 4 days after the inoculation. 0% means an efficacy which corresponds to that of the control, while an efficacy of 100% means that no disease is observed.

Sphaerotheca fuliginea = assay: In vivo test on Sphaerotheca fuliginea (cucurbits powdery mildew); details: dose of 500 ppm; gherkin plants; grading 12 days after contamination
Procedure: In Vivo Test on Sphaerotheca fuliginea (Cucurbits Powdery Mildew)
as §1
Gherkin plants (Vert petit de Paris variety) in starter cups, sown on a 50/50 peat soil-pozzolana substrate and grown at 20° C./23° C., are treated at the cotyledon Z10 stage by spraying with the aqueous suspension described above. Plants, used as controls, are treated with an aqueous solution not containing the active material.
After 24 hours, the plants are contaminated by spraying them with an aqueous suspension of Sphaerotheca fuliginea spores (100 000 spores per ml). The spores are collected from a contaminated plants. The contaminated gherkin plants are incubated at about 20° C./25° C. and at 60/70% relative humidity.
Grading (% of efficacy) is carried out 12 days after the contamination, in comparison with the control plants.

Pyrenophora teres = assay: In vivo test on Pyrenophora teres (barley net blotch); details: dose of 500 ppm; barley plants; grading 12 days after contamination
In short: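 Scoring is done 12 days after spore spraying (12,000 spores/ml, from 12-day-old culture), relative to water-treated controls. Inoculation follows by 24 h a preventive spray of the aqueous-diluted formulation onto 1-leaf Plaisant barley raised at 12° C.; infection holds 24 h at about 20° C./100% RH, then 12 days at 80% RH.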

Fusarium proliferatum = assay: Production of fumonisin FB1 by Fusarium proliferatum (microtiter plate, HPLC-MS/MS and OD620); format: cell-based; details: for % inhibition FB1 production at 50 μM: 5 days at 20° C., HPLC-MS/MS; for % inhibition fungal growth at 50 μM: Fusarium proliferatum, OD620 at start and after 5 days
Botrytis cinerea = assay: In vivo test on Botrytis cinerea (grey mould); details: dose of 500 ppm; gherkin plants; grading 5/7 days after contamination
Procedure: In Vivo Test on Botrytis cinerea (Grey Mould)
The active ingredients tested are prepared by homogenization in a mixture of acetone/Tween/DMSO, then diluted with water to obtain the desired active material
Gherkin plants (Vert petit de Paris variety), sown on a 50/50 peat soil-pozzolana substrate in starter cups and grown at 18-20° C., are treated at the cotyledon Z11 stage by spraying with the active ingredient prepared as described above.
as §2
After 24 hours, the plants are contaminated by depositing drops of an aqueous suspension of Botrytis cinerea spores (150,000 spores per ml) on upper surface of the leaves. The spores are collected from a 15-day-old culture and are suspended in a nutrient solution composed of: • 20 g/L of gelatine; • 50 g/L of D-fructose; • 2 g/L of NH4NO3; • 1 g/L of KH2PO4.
The contaminated cucumber plants are settled for 5/7 days in a climatic room at 15-11° C. (day/night) and at 80% relative humidity.
Grading is carried out 5/7 days after the contamination, in comparison with the control plants.

Fusarium graminearum = format: cell-based; details: 50 μM; for % Inhibition of DON/AcDON at 50 μM: 7 days at 28° C.
Alternaria solani = assay: Alternaria test (tomato) / protective; format: in vivo; details: 500 ppm active compound, protective spray, evaluated 7 days after inoculation
In short: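 Efficacy scored 7 days after inoculation, where 100% means no infection and 0% matches the untreated control. Test plants were young tomatoes given a protective spray at the stated rate, compound dissolved in DMF plus emulsifier and diluted with water. Incubation at 20° C, 96% relative humidity.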

Pyricularia grisea = details: in vivo
Pyricularia oryzae = details: in vivo
Leptosphaeria nodorum = Leptosphaeria nodorum test (wheat) / protective; format: in vivo; details: 500 ppm active compound, protective spray, evaluated 7-9 days after inoculation
In short: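 Young wheat plants sprayed protectively with compound in DMF/alkylaryl polyglycol ether emulsion diluted in water, then kept in greenhouse at 90% rel. humidity, 22° C. Scored 7-9 days after inoculation as % efficacy, 0% equal to untreated control and 100% no infection.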

Aspergillus parasiticus = format: cell-based; details: for % Inhibition of Aflatoxin at 50 μM: 7 days at 20° C.

C=CC(C)n1cc(-c2ccncc2)c(-c2ccc(Cl)s2)n1 (racemic) [Example 61]
efficacy (Cochliobolus miyabeanus): 92%
protection (Puccinia recondita): 77%
protection (% of efficacy) [1]: 77%
logP value of the minor isomer (in parenthesis in column Isomer ratio [d]) ([2]; pH 2.7): (1.76)
log p ([2]; pH 2.7): 1.91^[b]
protection (Peronospora parasitica): 100%
efficacy (Rhizoctonia solani): 98%
protection (% of efficacy) (Sphaerotheca fuliginea): 94%

Clc1ccc(-c2n[nH]cc2-c2ccncc2)s1 [Example 1]
protection (Pyrenophora teres): 90%
% inhibition FB1 production at 50 μM (Fusarium proliferatum): 82%
% inhibition fungal growth at 50 μM (Fusarium proliferatum): 41%
protection (% of efficacy) [1]: 75%
log p ([2]; pH 2.7): 0.96^[b]

Clc1ccc(-c2n[nH]cc2-c2ccncn2)s1 [Example 3]
% inhibition FB1 production at 50 μM (Fusarium proliferatum): 99%
% inhibition fungal growth at 50 μM (Fusarium proliferatum): 46%
protection (% of efficacy) [1]: 86%
log p ([2]; pH 2.3): 1.82^[a];
log p ([2]; pH 2.7): 1.74^[b]

CC(C)Cn1ncc(-c2ccncc2)c1-c1ccc(Cl)s1 [Example 6]
protection (Puccinia recondita): 70%
protection (% of efficacy) [1]: 70%
log p ([2]; pH 2.3): 2.2^[a]
protection (% of efficacy) (Sphaerotheca fuliginea): 75%

CC(C)CCn1cc(-c2ccncc2)c(-c2ccc(Cl)s2)n1 [Example 17]
protection (Pyrenophora teres): 100%
protection (Puccinia recondita): 70%
protection (% of efficacy) [1]: 70%
log p ([2]; pH 2.7): 2.45^[b]

CC(C)Cn1cc(-c2ccncc2)c(-c2ccc(Cl)s2)n1 [Example 21]
protection (Pyrenophora teres): 100%
% inhibition FB1 production at 50 μM (Fusarium proliferatum): 100%
% inhibition fungal growth at 50 μM (Fusarium proliferatum): 91%
protection (Botrytis cinerea): 100%
protection (Puccinia recondita): 75% and 85%
protection (% of efficacy) [1]: 85%
log p ([2]; pH 2.7): 2.08^[b]
% Inhibition of fungal growth at 50 μM (Fusarium graminearum): 96%
% Inhibition of DON/AcDON at 50 μM (Fusarium graminearum): 100%
protection (% of efficacy) (Sphaerotheca fuliginea): 89%

Clc1ccc(-c2nn(C3CCCCO3)cc2-c2ccncc2)s1 (stereo not drawn) [Example 45]
protection (% of efficacy) [1]: 71%
log p ([2]; pH 2.7): 1.91^[b]

Cn1cc(-c2ccncc2)c(-c2ccc(Cl)s2)n1 [Example 46]
protection (Pyrenophora teres): 70%
efficacy (Alternaria solani): 95%
protection (% of efficacy) (Pyricularia grisea): 93%
efficacy (Pyricularia oryzae): 93%
logP value of the minor isomer (in parenthesis in column Isomer ratio [d]) ([2]; pH 2.7): (1.17)
log p ([2]; pH 2.7): 1.26^[b]
protection (Peronospora parasitica): 92%

ClC(Cl)=CCn1cc(-c2ccncc2)c(-c2ccc(Cl)s2)n1 [Example 50]
protection (Pyrenophora teres): 70%
logP value of the minor isomer (in parenthesis in column Isomer ratio [d]) ([2]; pH 2.7): (2.07)
log p ([2]; pH 2.7): 2.3^[b]
efficacy (Rhizoctonia solani): 93%

COCn1cc(-c2ccncc2)c(-c2ccc(Cl)s2)n1 [Example 52]
protection (Pyrenophora teres): 86%
protection (Botrytis cinerea): at least 70%
protection (Puccinia recondita): 97%
protection (% of efficacy) [1]: 97%
log p ([2]; pH 2.7): 1.38^[b]
protection (% of efficacy) (Sphaerotheca fuliginea): 90%

FC(F)(F)Cn1cc(-c2ccncc2)c(-c2ccc(Cl)s2)n1 [Example 54]
efficacy (Cochliobolus miyabeanus): 90%
log p ([2]; pH 2.7): 1.88^[b]
efficacy (Rhizoctonia solani): 100%

CCC(CC)n1cc(-c2ccncc2)c(-c2ccc(Cl)s2)n1 [Example 64]
protection (Pyrenophora teres): 95%
efficacy (Alternaria solani): 80%
protection (Botrytis cinerea): 98%
efficacy (Cochliobolus miyabeanus): 97%
protection (Puccinia recondita): 88%
protection (% of efficacy) [1]: 88%
log p ([2]; pH 2.7): 2.18^[b]
efficacy (Leptosphaeria nodorum): 78%
efficacy (Rhizoctonia solani): 100%
protection (% of efficacy) (Sphaerotheca fuliginea): 98%

Nc1cc(-c2cn(CCF)nc2-c2ccc(Cl)s2)ccn1 [Example 296]
% Inhibition of fungal growth at 50 μM (Aspergillus parasiticus): 47%
% Inhibition of Aflatoxin at 50 μM (Aspergillus parasiticus): 74%
protection (Pyrenophora teres): 70%
log p ([2]; pH 2.7): 1.46^[b]

CCC(C)n1nc(-c2ccc(Cl)s2)c(-c2ccncc2)c1SC (stereo not drawn) [Example 298]
% Inhibition of fungal growth at 50 μM (Aspergillus parasiticus): 64%
% Inhibition of Aflatoxin at 50 μM (Aspergillus parasiticus): 99%
efficacy (Alternaria solani): 95%
log p ([2]; pH 2.7): 3.35^[b]
% Inhibition of fungal growth at 50 μM (Fusarium graminearum): 38%
% Inhibition of DON/AcDON at 50 μM (Fusarium graminearum): 100%
